Entries after “also recorded” stand apart in the source; their conditions may differ.
How the values were obtained:
[1] = test system: G3BP1 aggregates in E12.5 motor neurons; experiment: Endogenous G3BP1 aggregates in MPP+-treated motor neurons; type: cell-based, mouse; settings: MPP+ plus 10 μM peptide
Description: Previous studies have shown that, exposure of midbrain neurons results in formation of stress granules. To test whether treatment of motor neurons with mitotoxin MPP+ results in the formation of stress granules the inventors stained the MPP+-treated neurons for G3BP1 protein.
(A) Quantification of mitotoxin/neurotoxin MPP+-induced degeneration of DIV7 E12.5 motor neuron neurites after exposure of cultures to 100 μM MPP+ and either 10 μM 190-208 G3BP1 or 168-189 control peptide. As controls, neurons treated with solvents were used. (B) Representative images of G3BP1 (green) and NF-labeled (red) E12.5 motor neurons under control or after treatment with 100 μM MPP+ [scale bar=10 μm]. (C) distribution of sizes of endogenous G3BP1 aggregate per 100 μm neurite is shown as indicated bins from motor neurons cultures as treated in (B). (N≥80 neurites over three repetitions; by one-way ANOVA with Tukey HSD post-hoc). […] (D) Endogenous G3BP1 aggregate sizes per 100 μm neurite indicated as bins for motor neurons either untreated or treated with MPP+ alone or with addition of 10 μM 190-208 G3BP1 or 168-189 control peptide. […] (N≥90 over 3 cultures; by one-way ANOVA with Tukey HSD post-hoc)

[2] = test system: G3BP1 aggregates in cortical neurons; experiment: Endogenous G3BP1 aggregates in Aβ-treated cortical neurons; type: cell-based, rat; settings: Aβ oligomers plus peptide
Excerpt: Given that the G3BP1 190-208 peptide prevents degeneration induced by treatment with neurotoxins such as MPP+ and Aβ oligomer and decreases G3BP1 aggregates formed due MPP+ and Aβ treatment.
(A) Size of endogenous G3BP1 aggregates per 100 μm of neurite is shown as indicated bins from midbrain cultures under control conditions and after treatment with MPP+alone or with 190-208 G3BP1 or 168-189 peptides. (B) Size distribution of endogenous G3BP1 aggregates per 100 μm of neurite is shown from cortical neurons treated with 1 μM Aβpeptide or with […] 190-208 G3BP1 or 168-189 control peptide. Non-treated neurons were used as a control. […] (N≥90 over 3 cultures; by two-way ANOVA with Tukey HSD post-hoc).

[3] = test system: GFP^MYR/mCh^MYR translation reporters in DRG axons; experiment: FRAP of axonal translation reporters; type: cell-based, rat; settings: 10 μM peptide 30 min
Description: Fluorescence recovery after photobleaching (FRAP). FRAP was used to test for axonal mRNA protein synthesis using diffusion-limited GFP^MYR and mCherry^MYR reporters as described with minor modifications. In each case, DRG neurons were co-transfected with GFP^MYR 5′/3′nrn1+mCherry^MYR 5′/3′gap43 or GFP^MYR 5′/3′impβ1+mCherry^MYR5′/3′gap43 so that recovery of both reporters could be analyzed simultaneously. Cells were maintained at 37° C., 5% CO2 during imaging sequences. 488 nm and 514 nm laser lines on Leica SP8X confocal microscope were used to bleach GFP and mCherry signals, respectively (Argon laser at 70% power, pulsed every 0.82 s for 80 frames). Pinhole was set to 3 Airy units to ensure full thickness bleaching and acquisition (63×/1.4 NA oil immersion objective). Prior to photobleaching, neurons were imaged every 60 s for 2 min to acquire baseline fluorescence the region of interest (ROI; 15% laser power, 498-530 nm for GFP and 565-597 nm for mCherry emissions, respectively). The same excitation and emission parameters were used to assess recovery over 15 min post-bleach with images acquired at 30 s intervals. To determine if fluorescence recovery in axons was from translation, cultures were treated with 150 μg/ml cycloheximide (Sigma) or 100 μm anisomycin (Sigma) for 30 min prior to photobleaching for GFP^MYR 5′/3′nrn1+mCherry^MYR 5′/3′gap43 and GFP^MYR 5′/3′impβ1+mCh^MYR 5′/3′gap43 transfected DRGs, respectively. […] Photobleaching followed by analyses of recovery was performed after 30 min of peptide exposure.
For normalizing across experiments, fluorescence intensity value at t=0 min postbleach from each image sequence was set as 0%. The percentage of fluorescence recovery at each time point after photobleaching was then calculated by normalizing relative to the pre-bleach fluorescence intensity (set at 100%).

[4] = listed as 190-208 G3BP1 peptide

**Q.** Which “size of endogenous G3BP1 aggregates per 100 μm neurite” value [1] does the source give for “YGNKKNNNQNNN-VVEPEPEPEPEPEPEPVSE [G3BP1 190-208 peptide]” here?
**A.** The value was “decrease in the size of aggregates”.

**Q.** What about the “size of endogenous G3BP1 aggregates per 100 μm neurite” value [1, 4] of the same substance?
**A.** Its value is “decrease in the number of larger G3BP1 granules”.

**Q.** And the “size of endogenous G3BP1 aggregates per 100 μm of neurite” value [2]?
**A.** Its value is “decrease in the size of G3BP1 aggregates”.

**Q.** And the “size of endogenous G3BP1 aggregates per 100 μm of neurite” value [2, 4]?
**A.** The value was “disassembly of G3BP1 granules”.

**Q.** And the “axonal translation of GFP^MYR 5′/3′nrn1” value ([3]; G3BP1 overexpression (G3BP1-BFP))?
**A.** The value was “reversed the decrease in axonal translation; also recorded: increased”.

**Q.** What about the “axonal translation of GFP^MYR 5′/3′impβ1” value ([3]; G3BP1 overexpression) of the same substance?
**A.** The value was “did not rescue the decline in axonal translation”.

**Q.** What about the “GFP^MYR 5′/3′impβ1 translation in axons” value ([3]; control conditions) of the same substance?
**A.** The value was “lack of effect”.

**Q.** And the “mCh^MYR 5′/3′gap43 translation in axons” value ([3]; control conditions)?
**A.** Its value is “lack of effect”.

**Q.** What about the “penetration into cell bodies and axons” value (primary MNs) of the same substance?
**A.** Its value is “penetration”.
